Measured values as given in ChEMBL document CHEMBL3785080, “Individual and combined antiparasitic effect of six plant metabolites against Leishmania amazonensis and Trypanosoma cruzi” (Bioorg Med Chem Lett, 2016).

How the values were obtained:
[1] = tested on: Leishmania amazonensis; test: Antileishmanial activity against intracellular amastigote stage of Leishmania amazonensis infected in human THP1 cells […] by microplate based assay; assay type: functional, organism-based
[2] = Cytotoxicity against human THP1 cells assessed as cell viability after 72 hrs by MTT assay; assay type: functional; conditions: THP-1, 72 h
[3] = Selectivity index, ratio of CC50 for human THP1 cells to IC50 for Leishmania amazonensis; assay type: functional, THP-1
[4] = Selectivity index, ratio of CC50 for human THP1 cells to IC50 for Trypanosoma cruzi Tulahuen; assay type: functional, THP-1
[5] = tested on: Trypanosoma cruzi; test: Antiprotozoan activity against intracellular amastigote stage of Trypanosoma cruzi Tulahuen infected in human THP1 cells assessed as reduction in parasite viability after 48 hrs by microplate based assay; assay type: functional, organism-based; conditions: THP-1, 48 h

Row | Structure (SMILES) | IC50 [1] [µM] | IC50 [5] [µM] | CC50 [2] [µM] | Ratio CC50/IC50 [3] | Ratio CC50/IC50 [4]
1 | CC1(C)C=Cc2c(ccc(C(=O)/C=C/c3ccc(O)cc3)c2O)O1 | 23 | – | 76.2 | 3.31 | –
2 | COc1c(O)ccc2c1C(O)N(C)c1c-2ccc2cc3c(cc12)OCO3 (centres undefined) | 16.2 | – | > 125 | >7.69 | –
3 | CC(C)=CCc1c(O)c(CC=C(C)C)c2c(c1O)C(=O)C[C@@H](c1ccc(O)c(O)c1)O2 | 29.2 | – | 46.3 | 1.58 | –
4 | CC(C)=CCc1c(O)ccc(C(=O)/C=C/c2ccc(O)cc2)c1O [ISOBAVACHALCONE] | – | – | 36 | – | –

Continued, in another order:

Row | IC50 [1] [µM] | IC50 [5] [µM] | Structure (SMILES) | CC50 [2] [µM] | Ratio CC50/IC50 [3] | Ratio CC50/IC50 [4]
5 | 0.07 | – | C[C@@H]1[C@H](O)[C@@H](C)/C=C/C=C/C=C/C=C/C=C/C=C/C=C/[C@H](O[C@@H]2O[C@H](C)[C@@H](O)[C@H](N)[C@@H]2O)C[C@@H]2O[C@](O)(C[C@@H](O)C[C@@H](O)[C@H](O)CC[C@@H](O)C[C@@H](O)CC(=O)O[C@H]1C)C[C@H](O)[C@H]2C(=O)O [AMPHOTERICIN B] | 10 | 142 | –
6 | – | 10.2 | O=C(Cn1ccnc1[N+](=O)[O-])NCc1ccccc1 [BENZNIDAZOLE] | > 125 | – | >12
7 | – | 39.5 | COc1c(C=O)c(O)cc2c1C(=O)c1ccccc1C2=O [DAMNACANTHAL] | 31.5 | – | 0.79
8 | 21.8 | 44.5 | CC1(C)C=Cc2c(ccc(C(=O)/C=C/c3ccccc3)c2O)O1 [LONCHOCARPIN] | 66 | 3.03 | 1.48
